In patent US20050101783A1, “N-(heterocycle-methyl)alkylamine derivative, process for producing the same, and bactericide” (priority 2000, published 2005):

Tests used:
Format in all cases: in vivo
[1] = tested on: Erysiphe graminis f. sp tritici; assay: Preventive effect test of wheat powdery mildew (wettable powder sprayed on potted wheat, preventive value); details: wettable powder suspended at 250 mg/l, sprayed on potted wheat at 100 l/10 a; morbidity investigated 9th to 14th day after inoculation
Method: (Preventive Effect Test of Erysiphe graminis f. sp […])
The wettable powders obtained by using each compound were diluted with water and were suspended at a predetermined concentration (250 mg/l) and the solution was sprayed over the first to second leaf stage-wheat (variety. Agriculture and Forestry No. 64) cultivated by using a square plastic pot (size: 6.4 cm×6.4 cm) at a rate of 100 1/10 a (are).
After the sprayed leaves were air-dried, the suspension of the spore of Erysiphe graminis f. sp tritici germ sampled from the contracted leaves were sprayed and inoculated over the sprayed leaf after air-dried, the leaves were kept at 20 to 24° C. under a high-humidity condition for 24 hours, then, the leaves were subjected to still standing in a greenhouse (temperature: 20 to 24° C. and relative humidity: 20 to 70 RH). The morbidity rate was investigated based on the following investigation standard on 9th to 14th day after the inoculation and the preventive value was calculated according to the following formula 1.

[2] = tested on: cucumber gray mold; assay: Preventive effect test of cucumber gray mold (wettable powder sprayed on potted cucumber, preventive value); details: wettable powder suspended at 250 mg/l, sprayed on potted cucumber at 100 l/10 a; morbidity investigated 4th to 6th day after inoculation
Method: (Preventive Effect Test of Cucumber Gray Mold)
The wettable powders obtained by using each compound were diluted with water and were suspended at a predetermined concentration (250 mg/l) and the solution was sprayed over the first to second leaf stage-cucumber (variety: “Sagamihanpakufushinari”) cultivated by using a square plastic pot (size: 6.4 cm×6.4 cm) at a rate of 100 1/10 a.
After the sprayed leaves were air-dried, a paper disk where the solution of the spore of the gray mold suspended with water was impregnated was put on the aforementioned sprayed leaves, and the leaves were contracted in a glass greenhouse (temperature: 20 to 24° C. and relative humidity: 20 to 70 RH). The morbidity rate was investigated based on the following investigation standard on 4th to 6th day after the inoculation and the preventive value was calculated according to the following formula 2.

[3] = tested on: cucumber powdery mildew; assay: Preventive effect of cucumber powdery mildew (wettable powder sprayed on potted cucumber, preventive value); details: wettable powder suspended at 100 mg/l, sprayed on potted cucumber at 100 l/10 a; morbidity investigated 9th to 14th day after inoculation
Method: (Preventive Effect of Cucumber Powdery Mildew)
The wettable powders obtained by using each compound were diluted with water and were suspended at a predetermined concentration (100 mg/l) and the solution was sprayed over the first to second leaf stage-cucumber (variety: “Sagamihanpakufushinari”) cultivated by using a square plastic pot (size: 6.4 cm×6.4 cm) at a rate of 100 1/10 a.
After the sprayed leaves were air-dried, the spore was inoculated over the aforementioned air-dried leaves from the contracted leaves with a brush, and the contraction was performed in a glass greenhouse (temperature: 20 to 24° C. and relative humidity: 20 to 70 RH). The morbidity rate was investigated based on the same investigation standard as that in the preventive effect test of the cucumber gray mold on 9th to 14th day after the inoculation, and the preventive value was calculated according to the aforementioned formula 2.

| SMILES | Preventive Value (%) [1] [%] | Preventive Value (%) [2] [%] | Preventive Value (%) [3] [%] |
| --- | --- | --- | --- |
| CC(Cc1ccc(Cl)cc1Cl)CN(C)Cc1ccc(Cl)nc1 (stereo not drawn) [Compound (a), 6-chloro-N-methyl-N-[2-methyl-3-(2,4-dichlorophenyl)propyl]-3-pyridylmethylamine, reference compound] | 60 | 80 | 70 |
| CC(Cc1cccc(Cl)c1)CN(C)Cc1ccc(Cl)nc1 (stereo not drawn) [Compound (b), 6-chloro-N-methyl-N-[2-methyl-3-(3-chlorophenyl)propyl]-3-pyridylmethylamine, reference compound] | 70 | 30 | 80 |
| CN(Cc1cccnc1)CC(C)(C)Cc1ccc(C(C)(C)C)cc1 [Compound I-16] |  | 100 |  |
| CN(Cc1ccc(F)nc1)CC(C)(C)Cc1ccc(C(C)(C)C)cc1 [Compound I-19] | 100 | 100 | 100 |
| CN(Cc1cccnc1Cl)CC(C)(C)Cc1ccc(C(C)(C)C)cc1 [Compound I-20] |  | 100 |  |
| Cc1ncc(CN(C)CC(C)(C)Cc2ccc(C(C)(C)C)cc2)cn1 [Compound I-21] |  | 100 |  |
| CN(Cc1ccc(Cl)nc1)CC(C)(C)Cc1ccc(C(C)(C)C)cc1 [Compound I-25] |  | 100 |  |
| CC(C)Oc1cccc(CC(C)(C)CN(C)Cc2ccc(Cl)nc2)c1 [Compound I-27] | 100 |  |  |
| CN(Cc1ccc(Cl)nc1)CC(C)(C)Cc1ccc(Cl)cc1 [Compound I-28] | 100 | 100 |  |
| CN(Cc1ccc(Cl)nc1)CC(C)(C)Cc1cccc(Cl)c1 [Compound I-29] |  | 100 |  |
| CN(Cc1ccc(Cl)nc1)CC(C)(C)Cc1ccc(Cl)cc1Cl [Compound I-31] |  | 100 |  |
| CN(Cc1ccc(Cl)nc1)CC(C)(C)Cc1cc(Cl)ccc1Cl [Compound I-32] |  | 100 |  |
| CN(Cc1ccc(Cl)nc1)CC(C)(C)Cc1ccc(Cl)c(Cl)c1 [Compound I-33] |  | 100 |  |
| CN(Cc1ccc(Cl)nc1)CC(C)(C)Cc1cc(Cl)cc(Cl)c1 [Compound I-34] |  | 100 |  |
| CN(Cc1ccc(Cl)nc1)CC(C)(C)Cc1ccc(Oc2ccccc2)cc1 [Compound I-35] |  | 100 |  |
| CN(Cc1ccc(Cl)nc1)CC(C)(C)Cc1cccc(Oc2ccccc2)c1 [Compound I-36] |  | 100 |  |
| CN(Cc1ccc(Cl)nc1)CC(C)(C)Cc1ccc(F)c(Oc2ccccc2)c1 [Compound I-38] |  | 100 |  |
| Cc1ccc(Oc2cccc(CC(C)(C)CN(C)Cc3ccc(Cl)nc3)c2)cc1 [Compound I-39] |  | 100 |  |
| CN(Cc1ccc(Cl)nc1)CC(C)(C)Cc1cccc(Oc2cccc(C(F)(F)F)c2)c1 [Compound I-40] |  | 100 |  |
| CN(Cc1ccc(Cl)nc1)CC(C)(C)Cc1cccc(OC(F)(F)F)c1 [Compound I-46] |  | 100 |  |
| CN(Cc1ccc(Cl)nc1)CC(C)(C)Cc1cccc(OC(F)(F)C(F)F)c1 [Compound I-48] |  | 100 |  |
| CN(Cc1ccc(Cl)nc1)CC(C)(C)Cc1ccc2c(c1)OC(F)(F)O2 [Compound I-49] | 100 |  | 100 |
| CC(CCc1ccc(C(C)(C)C)cc1)CN(C)Cc1ccc(Cl)nc1 (stereo not drawn) [Compound I-50] |  | 100 |  |
| CN(Cc1ccc(Cl)nc1)CC(C)(C)CCc1ccc(C(C)(C)C)cc1 [Compound I-51] |  | 100 |  |
| CC(CCCc1ccc(C(C)(C)C)cc1)CN(C)Cc1ccc(Cl)nc1 (stereo not drawn) [Compound I-52] |  | 100 |  |

| SMILES | Preventive Value (%) [1] [%] | Preventive Value (%) [2] [%] | Preventive Value (%) [3] [%] |
| --- | --- | --- | --- |
| CC(CCc1cccc(Oc2ccccc2)c1)CN(C)Cc1ccc(Cl)nc1 (stereo not drawn) [Compound I-54] |  | 100 |  |
| CN(Cc1ccc(Cl)nc1)CC(C)(C)CCc1cccc(Oc2ccccc2)c1 [Compound I-55] |  |  | 100 |
| CC(CCc1ccc(Cl)cc1Cl)CN(C)Cc1ccc(Cl)nc1 (stereo not drawn) [Compound I-56] | 100 |  | 100 |
| CC(CC1CCC(C(C)(C)C)CC1)CN(C)Cc1ccc(Cl)nc1 (stereo not drawn) [Compound I-62, N-[3-(4-t-butylcyclohexyl)-2-methylpropyl]-6-chloro-N-methyl-3-pyridylmethylamine] | 100 | 100 |  |
| CN(Cc1ccc(Cl)nc1)CC(C)(C)CC1CCC(C(C)(C)C)CC1 (stereo not drawn) [Compound I-63] |  | 100 |  |
| CC(CCC1CCC(C(C)(C)C)CC1)CN(C)Cc1ccc(Cl)nc1 (stereo not drawn) [Compound I-64] |  | 100 |  |
| CC(CCCC1CCC(C(C)(C)C)CC1)CN(C)Cc1ccc(Cl)nc1 (stereo not drawn) [Compound I-66] |  | 100 |  |
| CN(Cc1ccc(Cl)nc1)CC(C)(C)Cc1ccc(OC(C)(C)C)cc1 [Compound I-73] | 100 | 100 | 100 |
| CC(C)Oc1ccc(CC(C)(C)CN(C)Cc2ccc(Cl)nc2)cc1 [Compound I-74] | 100 | 100 | 100 |
| CN(Cc1ccc(Cl)nc1)CC(C)(C)Cc1ccc(OCC(F)(F)F)cc1 [Compound I-82] | 100 | 100 | 100 |
| CN(Cc1ccc(Cl)nc1)CC(C)(C)Cc1ccc(OC(F)(F)C(F)F)cc1 [Compound I-83] | 100 | 100 | 100 |
| CN(Cc1ccc(Cl)nc1)CC(C)(C)Cc1ccc(OCC(F)(F)C(F)F)cc1 [Compound I-84] | 100 | 100 | 100 |
| CN(Cc1ccc(Cl)nc1)CC(C)(C)Cc1ccc(OCC(F)(F)C(F)(F)F)cc1 [Compound I-85] | 100 | 100 | 100 |
| COCc1ccc(CC(C)(C)CN(C)Cc2ccc(Cl)nc2)cc1 [Compound I-88] | 100 | 100 | 100 |
| CCOCc1ccc(CC(C)(C)CN(C)Cc2ccc(Cl)nc2)cc1 [Compound I-89] | 100 | 100 | 100 |
| COC(C)c1ccc(CC(C)(C)CN(C)Cc2ccc(Cl)nc2)cc1 (stereo not drawn) [Compound I-95] | 100 | 100 | 100 |
| CCOC(C)c1ccc(CC(C)(C)CN(C)Cc2ccc(Cl)nc2)cc1 (stereo not drawn) [Compound I-96] | 100 | 100 | 100 |
| CON=C(C)c1ccc(CC(C)(C)CN(C)Cc2ccc(Cl)nc2)cc1 [Compound I-116] | 100 | 100 | 100 |
| CCON=C(C)c1ccc(CC(C)(C)CN(C)Cc2ccc(Cl)nc2)cc1 [Compound I-117] | 100 | 100 | 100 |
| CCC(=NOC)c1ccc(CC(C)(C)CN(C)Cc2ccc(Cl)nc2)cc1 [Compound I-121] | 100 | 100 | 100 |
| CN(Cc1ccc(Br)nc1)CC(C)(C)Cc1ccc(OC(F)(F)F)cc1 [Compound I-139] | 100 | 100 | 100 |
| CN(Cc1ccc(F)nc1)CC(C)(C)Cc1ccc(OC(F)(F)F)cc1 [Compound I-140] | 100 | 100 | 100 |
| CN(Cc1ccc(C(F)(F)F)nc1)CC(C)(C)Cc1ccc(OC(F)(F)F)cc1 [Compound I-141] | 100 | 100 | 100 |
| CN(Cc1cnc(Cl)s1)CC(C)(C)Cc1ccc(OC(F)(F)F)cc1 [Compound I-142] | 100 | 100 | 100 |
